We go through 26 compounds from patent publication US20180244699A1, “1-HYDROXY-3H-2,1-BENZOXABOROLE DERIVATIVES AND THEIR USE AS MICROBIOCIDES” (Syngenta Participations AG, priority 2015, published 2018).

Common to all, as to type: cell-based
One assay has as its system Pythium ultimum. Put plainly: Pythium ultimum / liquid culture (seedling damping off). The conditions noted are these: Globisporangium ultimum, growth inhibition photometrically 2-3 days after application, compared to untreated control. The procedure:
15. Pythium ultimum/Liquid Culture (Seedling Damping Off) Mycelia fragments and oospores of a newly grown liquid culture of the fungus are directly mixed into nutrient broth (PDB potato dextrose broth). After placing a (DMSO) solution of test compound into a microtiter plate (96-well format), the nutrient broth containing the fungal mycelia/spore mixture is added. The test plates are incubated at 24° C. and the inhibition of growth is determined photometrically 2-3 days after application.

For a further assay, the system named is Gaeumannomyces graminis. Nature of the assay: Gaeumannomyces graminis / liquid culture (take-all of cereals). The conditions noted are these: growth inhibition photometrically 4-5 days after application, compared to untreated control. The procedure: 6. Gaeumannomyces Graminis/Liquid Culture (Take-all of Cereals) Mycelial fragments of the fungus from cryogenic storage were directly mixed into nutrient broth (PDB potato dextrose broth). After placing a (DMSO) solution of test compound into a microtiter plate (96-well format), the nutrient broth containing the fungal spores is added. The test plates are incubated at 24° C. and the inhibition of growth is determined photometrically 4-5 days after application.

Assay [1] has as its system Monographella nivalis (Microdochium nivale). Nature of the assay: Monographella nivalis (Microdochium nivale) / liquid culture (foot rot cereals). The conditions noted are these: growth inhibition photometrically 4-5 days after application, compared to untreated control. The procedure: 8. Monographella nivalis (Microdochium nivale)/Liquid Culture (Foot Rot Cereals) Conidia of the fungus from cryogenic storage are directly mixed into nutrient broth (PDB potato dextrose broth). After placing a (DMSO) solution of test compound into a microtiter plate (96-well format), the nutrient broth containing the fungal spores is added. The test plates are incubated at 24° C. and the inhibition of growth is determined photometrically 4-5 days after application.

Assay [2] deals with Glomerella lagenarium (Colletotrichum lagenarium). Nature of the assay: Glomerella lagenarium (Colletotrichum lagenarium) / liquid culture (anthracnose). The conditions noted are these: Colletotrichum orbiculare, growth inhibition photometrically 3-4 days after application, compared to untreated control. The procedure: 3. Glomerella lagenarium (Colletotrichum lagenarium)/Liquid Culture (Anthracnose) Conidia of the fungus from cryogenic storage are directly mixed into nutrient broth (PDB potato dextrose broth). After placing a (DMSO) solution of test compound into a microtiter plate (96-well format), the nutrient broth containing the fungal spores is added. The test plates are incubated at 24° C. and the inhibition of growth is measured photometrically 3-4 days after application.

SMILES strings stand for the structures. Some results are limits rather than exact numbers.

Consider `COc1c(C(=O)Oc2ccc(C#N)cc2)ccc2c1B(O)OC2` [Compound 14, (4-cyanophenyl) 1-hydroxy-7-methoxy-3H-2,1-benzoxaborole-6-carboxylate], for which the inhibition of growth at 20 ppm in the assay with Pythium ultimum and in the assay with Gaeumannomyces graminis was not below 80% throughout.
With `COc1c(C(=O)OCn2cnc(Cl)c2Cl)ccc2c1B(O)OC2` [Compound 97, (4,5-dichloroimidazol-1-yl)methyl 1-hydroxy-7-methoxy-3H-2,1-benzoxaborole-6-carboxylate], the inhibition of growth at 20 ppm with Pythium ultimum and in the assay with Gaeumannomyces graminis was not below 80% throughout.
For `CCOC(=O)[C@H](C)OC(=O)c1ccc2c(c1OC)B(O)OC2` [Compound 125, [(1S)-2-ethoxy-1-methyl-2-oxo-ethyl] 1-hydroxy-7-methoxy-3H-2,1-benzoxaborole-6-carboxylate], the inhibition of growth at 20 ppm (in the assay with Pythium ultimum; in assay [1]; in the assay with Gaeumannomyces graminis) was not below 80% each time.
Regarding `CCOC(=O)CC(OC(=O)c1ccc2c(c1OC)B(O)OC2)C(F)(F)F` (stereo not drawn) [Compound 101, [3-ethoxy-3-oxo-1-(trifluoromethyl)propyl] 1-hydroxy-7-methoxy-3H-2,1-benzoxaborole-6-carboxylate], the inhibition of growth at 20 ppm in the assay with Pythium ultimum and with Gaeumannomyces graminis was not below 80% in each case.
Take `COc1c(C(=O)OCc2nc(C)cs2)ccc2c1B(O)OC2` [Compound 96, (4-methylthiazol-2-yl)methyl 1-hydroxy-7-methoxy-3H-2,1-benzoxaborole-6-carboxylate]: the inhibition of growth at 20 ppm (in the assay with Pythium ultimum; in assay [1]; with Gaeumannomyces graminis) was not below 80% each time.
Consider `COc1c(C(=O)OCCOc2ccc(Cl)cc2)ccc2c1B(O)OC2` [Compound 81, 2-(4-chlorophenoxy)ethyl 1-hydroxy-7-methoxy-3H-2,1-benzoxaborole-6-carboxylate], for which the inhibition of growth at 20 ppm (in the assay with Pythium ultimum; in assay [1]; in the assay on Gaeumannomyces graminis) was not below 80% each time.
`C#CC(CC)OC(=O)c1ccc2c(c1OC)B(O)OC2` (stereo not drawn) [Compound 121, 1-ethylprop-2-ynyl 1-hydroxy-7-methoxy-3H-2,1-benzoxaborole-6-carboxylate]: the inhibition of growth at 20 ppm (in the assay with Pythium ultimum; in assay [1]; in assay [2]; in the assay with Gaeumannomyces graminis) was not below 80% in each case.
`COc1c(C(=O)OCc2c(Cl)cc(O)cc2Cl)ccc2c1B(O)OC2` [Compound 92, (2,6-dichloro-4-hydroxy-phenyl)methyl 1-hydroxy-7-methoxy-3H-2,1-benzoxaborole-6-carboxylate]: the inhibition of growth at 20 ppm (with Pythium ultimum; in assay [1]; in the assay on Gaeumannomyces graminis) was not below 80% in each case.
For `COc1c(C(=O)OCCn2nc(C)cc2OC(C)=O)ccc2c1B(O)OC2` [Compound 102, 2-(5-acetoxy-3-methyl-pyrazol-1-yl)ethyl 1-hydroxy-7-methoxy-3H-2,1-benzoxaborole-6-carboxylate], the inhibition of growth at 20 ppm in the assay on Pythium ultimum and in the assay with Gaeumannomyces graminis was not below 80% each time.
With `COc1c(C(=O)OCc2cc(Cl)ccc2Cl)ccc2c1B(O)OC2` [Compound 120, (2,5-dichlorophenyl)methyl 1-hydroxy-7-methoxy-3H-2,1-benzoxaborole-6-carboxylate], the inhibition of growth at 20 ppm in the assay with Gaeumannomyces graminis was not below 80%.
As to `COc1c(C(=O)OCC#Cc2ccc(Cl)cc2)ccc2c1B(O)OC2` [Compound 80, 3-(4-chlorophenyl)prop-2-ynyl 1-hydroxy-7-methoxy-3H-2,1-benzoxaborole-6-carboxylate], the inhibition of growth at 20 ppm (with Pythium ultimum; in assay [1]; with Gaeumannomyces graminis) was not below 80% in each case.
Consider `COC(=O)Nc1ccc(COC(=O)c2ccc3c(c2OC)B(O)OC3)cc1` [Compound 90, [4-(methoxycarbonylamino)phenyl]methyl 1-hydroxy-7-methoxy-3H-2,1-benzoxaborole-6-carboxylate], for which the inhibition of growth at 20 ppm (in the assay with Pythium ultimum; in assay [1]; in the assay with Gaeumannomyces graminis) was not below 80% throughout.
On to `COc1c(C(=O)OCC2CCC=CO2)ccc2c1B(O)OC2` (stereo not drawn) [Compound 77, 3,4-dihydro-2H-pyran-2-ylmethyl 1-hydroxy-7-methoxy-3H-2,1-benzoxaborole-6-carboxylate], for which the inhibition of growth at 20 ppm (in the assay with Pythium ultimum; in assay [1]; in the assay on Gaeumannomyces graminis) was not below 80% each time.
Regarding `COc1c(C(=O)OCC(OC)c2ccccc2)ccc2c1B(O)OC2` (stereo not drawn) [Compound 75, (2-methoxy-2-phenyl-ethyl) 1-hydroxy-7-methoxy-3H-2,1-benzoxaborole-6-carboxylate], the inhibition of growth at 20 ppm (in the assay on Pythium ultimum; in assay [1]; with Gaeumannomyces graminis) was not below 80% each time.
On to `COc1ccccc1COC(=O)c1ccc2c(c1OC)B(O)OC2` [Compound 128, (2-methoxyphenyl)methyl 1-hydroxy-7-methoxy-3H-2,1-benzoxaborole-6-carboxylate], for which the inhibition of growth at 20 ppm (in the assay with Pythium ultimum; in assay [1]; in the assay with Gaeumannomyces graminis) was not below 80% each time.
In the case of `COc1c(C(=O)OCc2ncc(Cl)cc2F)ccc2c1B(O)OC2` [Compound 87, (5-chloro-3-fluoro-2-pyridyl)methyl 1-hydroxy-7-methoxy-3H-2,1-benzoxaborole-6-carboxylate], the inhibition of growth at 20 ppm in the assay on Pythium ultimum and in the assay with Gaeumannomyces graminis was not below 80% in each case.
As for `COc1c(C(=O)Nc2n[nH]c(C(F)(F)F)n2)ccc2c1B(O)OC2` [Compound 46, 1-hydroxy-7-methoxy-N-[5-(trifluoromethyl)-1H-1,2,4-triazol-3-yl]-3H-2,1-benzoxaborole-6-carboxamide], the inhibition of growth at 20 ppm (with Pythium ultimum; in assay [1]) was not below 80% throughout.
With `COc1c(C(=O)OCc2cc(C)cc(C)c2)ccc2c1B(O)OC2` [Compound 116, (3,5-dimethylphenyl)methyl 1-hydroxy-7-methoxy-3H-2,1-benzoxaborole-6-carboxylate], the inhibition of growth at 20 ppm (with Pythium ultimum; in assay [1]; with Gaeumannomyces graminis) was not below 80% in each case.
In the case of `CCCC1OCC(C)(COC(=O)c2ccc3c(c2OC)B(O)OC3)CO1` (stereo not drawn) [Compound 98, (5-methyl-2-propyl-1,3-dioxan-5-yl)methyl 1-hydroxy-7-methoxy-3H-2,1-benzoxaborole-6-carboxylate], the inhibition of growth at 20 ppm (with Pythium ultimum; in assay [1]; in the assay with Gaeumannomyces graminis) was not below 80% each time.
For `COc1c(C(=O)OCC(C)(C)c2nnc(S)nc2O)ccc2c1B(O)OC2` [Compound 95, [2-(5-hydroxy-3-sulfanyl-1,2,4-triazin-6-yl)-2-methyl-propyl] 1-hydroxy-7-methoxy-3H-2,1-benzoxaborole-6-carboxylate], the inhibition of growth at 20 ppm (with Pythium ultimum; in assay [1]; in the assay with Gaeumannomyces graminis) was not below 80% each time.
As for `COc1c(C(=O)OC(C)c2cc(C(F)(F)F)n[nH]2)ccc2c1B(O)OC2` (stereo not drawn) [Compound 91, 1-[3-(trifluoromethyl)-1H-pyrazol-5-yl]ethyl 1-hydroxy-7-methoxy-3H-2,1-benzoxaborole-6-carboxylate], the inhibition of growth at 20 ppm in the assay with Pythium ultimum and in the assay on Gaeumannomyces graminis was not below 80% each time.
For `COc1c(C(=O)OCc2cccc(C(F)(F)F)c2)ccc2c1B(O)OC2` [Compound 88, [3-(trifluoromethyl)phenyl]methyl 1-hydroxy-7-methoxy-3H-2,1-benzoxaborole-6-carboxylate], the inhibition of growth at 20 ppm (with Pythium ultimum; in assay [1]; in the assay with Gaeumannomyces graminis) was not below 80% in each case.
For `COc1c(C(=O)NCc2c(C)cccc2Cl)ccc2c1B(O)OC2` [Compound 31, N-[(2-chloro-6-methyl-phenyl)methyl]-1-hydroxy-7-methoxy-3H-2,1-benzoxaborole-6-carboxamide], the inhibition of growth at 20 ppm (with Pythium ultimum; in assay [1]) was not below 80% in each case.
For the compound `COc1c(C(=O)OCCON=C(C)C)ccc2c1B(O)OC2` [Compound 93, 2-(isopropylideneamino)oxyethyl 1-hydroxy-7-methoxy-3H-2,1-benzoxaborole-6-carboxylate], the inhibition of growth at 20 ppm with Pythium ultimum and with Gaeumannomyces graminis was not below 80% in each case.
On to `COc1c(C(=O)Nc2ccc(C)cn2)ccc2c1B(O)OC2` [Compound 66, 1-hydroxy-7-methoxy-N-(5-methyl-2-pyridyl)-3H-2,1-benzoxaborole-6-carboxamide], for which the inhibition of growth at 20 ppm (in the assay on Pythium ultimum; in assay [1]) was not below 80% each time.
On to `CCCNC(=O)c1ccc2c(c1OC)B(O)OC2` [Compound 63, 1-hydroxy-7-methoxy-N-propyl-3H-2,1-benzoxaborole-6-carboxamide], for which the inhibition of growth at 20 ppm (with Pythium ultimum; in assay [1]) was not below 80% in each case.
